# Source: patent US11590167B2, “Methods and compositions for use of therapeutic T cells in combination with kinase inhibitors” (Juno Therapeutics, Inc., priority 2016, dated 2023)
# Experiments:
# anti-CD19 CAR T cells [1] = assay: Cytokine production by anti-CD19 CAR T cells co-cultured with irradiated K562-CD19 (MSD); assay type: cell-based, human
# Protocol: CAR-T cells generated as described above were plated at 100,000 cells/well on 96 well Poly-D-Lysine coated plates. Irradiated target cells (K562-CD19) were added at an effector to target ratio of 2.5:1. […] Culture supernatants were harvested at day 2, 3 or 4, and IFNγ, IL-2 and TNFa were measured from the culture supernatants using cytokine kits from Meso Scale Discovery (MSD).
# anti-CD19 CAR T cells [2] = assay: Cytolytic activity of anti-CD19 CAR T cells co-cultured with K562-CD19 target cells (IncuCyte); assay type: cell-based, human; settings: E:T 2.5:1, four days, three healthy donors; ibrutinib 0.5-5000 nM; compound of Formula (II) 50 to 5000 nM
# Description: (§1) To generate CAR-expressing T cells, T cells were isolated by immunoaffinity-based enrichment from three healthy human donor subjects, and cells from each donor were activated and transduced with a viral vector encoding an anti-CD19 CAR. The CAR contained an anti-CD19 scFv, an Ig-derived spacer, a human CD28-derived transmembrane domain, a human 4-1BB-derived intracellular signaling domain and a human CD3 zeta-derived signaling domain. The nucleic acid construct encoding the CAR also included a truncated EGFR (tEGFR) sequence for use as a transduction marker, separated from the CAR sequence by a self-cleaving T2A sequence.
# (§2) CAR-expressing CD4+ and CD8+ cells were mixed 1:1 for each donor, individually, and the pooled cells for each donor assessed in vitro under various conditions.
# CAR T cells generated as described above were plated in triplicate on Poly-D-Lysine plates and then co-cultured with ibrutinib-resistant, CD19-expressing target cells (K562 cells transduced to express CD19, K562-CD19) at an effector to target (E:T) ratio of 2.5:1. The targets cells were labeled with NucLight Red (NLR) to permit tracking of target cells by microscopy. […] Cytolytic activity was assessed by measuring the loss of viable target cells over a period of four days, as determined by red fluorescent signal (using the IncuCyte® Live Cell Analysis System, Essen Bioscience).
# anti-CD19 CAR T cells [3] = assay: TH1 phenotype of anti-CD19 CAR T cells in serial restimulation assay (flow cytometry); assay type: cell-based, human; settings: 18-day serial stimulation, three donors; 500 nM ibrutinib (P<0.01); compound of Formula (II) treatment
# Protocol: A serial restimulation assay was performed as described above and cells were harvested at various times and analyzed by flow cytometry to assess percentage of TH1-phenotype (assessed as CD4+CXCR3+CRTH2-) T cells or TH2-phenotype (assessed as CD4+CXCR3-CRTH2+).
# anti-CD19 CAR T cells [4] = assay: Expression of CAR-T cell surface markers over 4 days after stimulation with irradiated K562-CD19 (flow cytometry); assay type: cell-based, human; settings: four days after initial stimulation
# Description: as §1, §2
# CAR-T cells generated as described above were plated at 100,000 cells/well on 96 well Poly-D-Lysine coated plates. Irradiated K562-CD19 target cells were added at an effector to target ratio of 2.5:1.
# [5] = system: EGFRt+ CAR T cells and/or tumor cells; assay: CAR+ T cell and tumor cell counts in blood and bone marrow of Nalm-6 bearing mice; assay type: in vivo, NSG mice
# Protocol: NSG mice described in Example 2 were intravenously injected on day 0 with 5×10^5 Nalm-6 cells expressing firefly luciferase. […] A bridging experiment confirmed that administration of ibrutinib by drinking water was equivalent to oral gavage administration (data not shown). To permit assessment of the effect of a combination therapy with the inhibitor, a suboptimal dose of anti-CD19 CAR T cells was i.v. injected into the mice at 5×10^5/mouse at day 5. As a control, mice were administered the vehicle control without administration of the CAR-T cells or inhibitor.
# anti-CD19 CAR-T cells = assay: Serial restimulation assay, expansion of anti-CD19 CAR-T cells; assay type: cell-based, human
# Protocol: The ability of cells to expand ex vivo following repeated stimulations in some aspects can indicate capacity of CAR-T cells to persist (e.g., following initial activation) and/or is indicative of function and/or fitness in vivo (Zhao et al. (2015) Cancer Cell, 28:415-28). Anti-CD19 CAR-T cells generated as described above were plated in triplicate at 100,000 cells/well on 96 well Poly-D-Lysine coated plates, and irradiated target cells (K562-CD19) were added at an effector to target ratio of 2.5:1. […] A total of 7 rounds of stimulation during a 25 day culture period were carried out.
# For each round of stimulation, the fold change in cell number and the number of doublings was determined. […] Expansion kinetics were similar in all treatment groups after three rounds of stimulation (day 11), as observed by fold change and number of population doublings. […] The cells derived from the two donors in which these differences were observed, generally, as compared to those derived from the other donor, performed less well in the serial restimulation assay in the absence of either inhibitor.
# CAR T cells = assay: Activation and memory markers of CAR T cells from the serial stimulation assay (flow cytometry); assay type: cell-based, human; settings: days 0, 11, 18 and 21 of serial stimulation
# RLK/TXK = target: T1, RLK/TXK (Homo sapiens, UniProt P42681); settings: literature value given as embodiment; read-out: IC50 value, inhibitory activity against RLK/TXK; cited from earlier work
# T1 sequence (P42681 1-527): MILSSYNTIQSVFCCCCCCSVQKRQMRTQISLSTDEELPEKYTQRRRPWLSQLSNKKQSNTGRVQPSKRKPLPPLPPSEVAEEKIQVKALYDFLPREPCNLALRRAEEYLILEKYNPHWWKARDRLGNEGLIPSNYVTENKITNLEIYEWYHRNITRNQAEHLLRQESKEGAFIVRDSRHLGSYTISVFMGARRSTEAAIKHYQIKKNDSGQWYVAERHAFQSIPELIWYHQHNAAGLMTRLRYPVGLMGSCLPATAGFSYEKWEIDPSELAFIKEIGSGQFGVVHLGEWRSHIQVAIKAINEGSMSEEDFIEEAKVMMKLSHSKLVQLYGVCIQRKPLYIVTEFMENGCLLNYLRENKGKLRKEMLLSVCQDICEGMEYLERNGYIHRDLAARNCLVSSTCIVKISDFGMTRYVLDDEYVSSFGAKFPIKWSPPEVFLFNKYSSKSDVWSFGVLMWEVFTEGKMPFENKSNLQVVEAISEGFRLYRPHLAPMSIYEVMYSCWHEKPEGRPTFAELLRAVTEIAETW
compound,measurement,setting,value
CC#CC(=O)N1CCC[C@H]1c1nc(-c2ccc(C(=O)Nc3ccccn3)cc2)c2c(N)nccn12 [compound of Formula (II)],"CAR T cytokine production (IFNγ, IL-2, TNFα) following stimulation with K562.CD19 cells","anti-CD19 CAR T cells [1]; overall, three donors, culture supernatants, ibrutinib 0.5-500 nM, Formula (II) 50-5000 nM",did not inhibit CAR T cytokine production
same,cytokine production,"anti-CD19 CAR T cells [1]; some donors, compound of Formula (II)",modestly increased cytokine production in some donors
same,"cytolytic function of anti-CD19 CAR T cells against K562-CD19 target cells, normalized to untreated control",anti-CD19 CAR T cells [2],no negative impact on cytolytic function
same,percentage of TH1 cells,anti-CD19 CAR T cells [3],no significant effects were observed
same,phenotype of cells as central (TCM) or effector (TEM) memory subsets by CCR7 and CD45RA,anti-CD19 CAR T cells [4],did not affect the phenotype of cells as central (TCM) or effector (TEM) memory subsets
same,tumor cells in the blood or bone marrow compared to CAR+ cells with vehicle alone,[5]; CAR+ cell treatment combined with inhibitor,significantly fewer tumor cells were detected
same,circulating CAR+ T cells compared to CAR+ T cells and vehicle,"[5]; blood, days 7, 12, 19 and 26 post CAR+ T cell transfer, drinking water 25 mg/kg/day",significant increase in circulating CAR+ T cells
same,number of cells in the blood,"[5]; day 19 post CAR-T cell transfer, ibrutinib p<0.05, Formula (II) p<0.001",significant increase in the number of cells in the blood
same,expansion as measured by population doublings following multiple rounds of restimulation,"anti-CD19 CAR-T cells; by day 18, CAR+ T cells from two of the three donors, each concentration assessed",observed to be enhanced
same,cell counts after five rounds of stimulation (day 18),"anti-CD19 CAR-T cells; donor 3, highest concentration tested","Non-significant, increased cell counts"
same,"additional CAR T activation or memory markers (CD25, CD38, CD39, CD45RO, CD62L, CD69, CD107a, PD-1)",CAR T cells,No significant effects
same,IC50,RLK/TXK,~368 nM
